Paper PMC6370202, “The catabolism of 3,3’-thiodipropionic acid in Variovorax paradoxus strain TBEA6: A proteomic analysis” (PLoS ONE, 2019)

Experiments:
Ech-20 (VPARA_05520) = target: T1, Ech-20 (VPARA_05520) (Variovorax paradoxus, UniProt A0A0H2MCT8); test: thermal shift assay, SYPRO Orange; assay type: binding; conditions: 2 uM protein, 2 mM ligand, 100 mM Tris/HCl pH 8.0; increased stability; no shift with TDP
T1 construct: recombinant from pET-32a(+)::ech-20 in E. coli BL21 (DE3) pLysS; Ni-Sepharose purified
T1 sequence (A0A0H2MCT8 1-154): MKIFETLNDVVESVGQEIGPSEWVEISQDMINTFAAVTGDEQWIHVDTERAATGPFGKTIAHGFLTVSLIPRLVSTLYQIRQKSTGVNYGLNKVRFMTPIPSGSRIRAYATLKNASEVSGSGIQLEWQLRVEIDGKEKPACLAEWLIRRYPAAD

[1] = target: T2, PctRe (propionyl-CoA transferase of Ralstonia eutropha) (Cupriavidus necator, UniProt Q0K874); test: enzymatic CoA transfer, product by HPLC/MS; assay type: biochemical; conditions: 2 mM TDP, 1 mM acetyl-CoA, 20 ug PctRe in 1 ml, 100 mM Tris/HCl pH 8.0, 30 °C, 45 min
T2 construct: gene pct; recombinant from pET-19b::pctRe in E. coli BL21 (DE3) pLysS; N-terminal His-tag; Ni-Sepharose purified
T2 sequence (Q0K874 1-542): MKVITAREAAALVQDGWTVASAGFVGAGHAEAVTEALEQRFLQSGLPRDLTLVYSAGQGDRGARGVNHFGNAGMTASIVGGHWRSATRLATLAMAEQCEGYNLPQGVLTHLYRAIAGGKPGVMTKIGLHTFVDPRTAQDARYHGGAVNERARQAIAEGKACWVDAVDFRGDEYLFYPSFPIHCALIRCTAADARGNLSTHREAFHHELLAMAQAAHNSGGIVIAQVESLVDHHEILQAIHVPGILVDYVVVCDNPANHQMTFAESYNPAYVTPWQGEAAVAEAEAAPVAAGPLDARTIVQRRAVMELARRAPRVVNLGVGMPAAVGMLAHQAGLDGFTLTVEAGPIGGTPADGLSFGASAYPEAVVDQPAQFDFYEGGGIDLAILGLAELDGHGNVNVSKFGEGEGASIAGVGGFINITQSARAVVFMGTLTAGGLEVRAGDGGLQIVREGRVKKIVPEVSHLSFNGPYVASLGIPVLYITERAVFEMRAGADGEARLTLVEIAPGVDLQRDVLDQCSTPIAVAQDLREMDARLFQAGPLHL

In the case of CC(C)(COP(=O)(O)OP(=O)(O)OC[C@H]1O[C@@H](n2cnc3c(N)ncnc32)[C@H](O)[C@@H]1OP(=O)(O)O)[C@@H](O)C(=O)NCCC(=O)NCCSC(=O)CCSCCC(=O)O [TDP-CoA], the “shift in the melting temperature” value (Ech-20 (VPARA_05520)) is reported as “a shift in the melting temperature of Ech-20 in the presence of TDP-CoA was detected”.
In the case of O=C(O)CCSCCC(=O)O [TDP], the “enzymatic CoA transfer, product by HPLC/MS” value [1] is reported as “transfer of CoA from acetyl-CoA to TDP was accomplished using recombinant PctRe”.
In the case of CC(=O)SCCNC(=O)CCNC(=O)[C@H](O)C(C)(C)COP(=O)(O)OP(=O)(O)OC[C@H]1O[C@@H](n2cnc3c(N)ncnc32)[C@H](O)[C@@H]1OP(=O)(O)O [acetyl-CoA], the “enzymatic CoA transfer, product by HPLC/MS” value ([1]; CoA donor) is reported as “transfer of CoA from acetyl-CoA to TDP was accomplished using recombinant PctRe”.
